Results published in ChEMBL document CHEMBL3600358, “Design and synthesis of novel substituted naphthyridines as potential c-Met kinase inhibitors based on MK-2461” (Bioorg Med Chem Lett, 2015).

Columns and labels:
[1] = test system: HeLa; test: Antiproliferative activity against human HeLa cells incubated for 48 hrs by MTT assay; type: functional, cell-based
[2] = test system: A549; test: Antiproliferative activity against human A549 cells incubated for 48 hrs by MTT assay; type: functional, cell-based; conditions: A549, 48 h
[3] = test system: HeLa; test: Effect on total c-Met protein level in human HeLa cells at 1.25 to 20 uM incubated for 24 hrs by Western blot method; type: cell-based

`Cn1cc(-c2cnc3ccc(NC(=O)c4cccnc4)nc3c2)cn1` was tested, and the IC50 [1] was > 50 µM and the IC50 [2] was > 50 µM.

`Cn1cc(-c2cnc3ccnc(NCc4ccc(F)cc4)c3c2)cn1` was tested, and the Activity [3] was “Non-toxic”, the IC50 [1] was 9.2 µM and the IC50 [2] was 5.2 µM.

In the case of `Cn1cc(-c2cnc3ccc(NS(=O)(=O)c4ccc(C(F)(F)F)cc4)nc3c2)cn1`, the IC50 [1] is reported as > 50 µM and the IC50 [2] is reported as > 50 µM.

With `Cn1cc(-c2cnc3ccnc(NS(=O)(=O)c4ccc(C(F)(F)F)cc4)c3c2)cn1` the IC50 [1] was > 50 µM and the IC50 [2] was > 50 µM.

In the case of `Cn1cc(-c2cnc3ccc(NS(=O)(=O)c4ccc(Cl)cc4Cl)nc3c2)cn1`, the IC50 [1] is reported as > 50 µM and the IC50 [2] is reported as > 50 µM.

For `Cn1cc(-c2cnc3ccc(NC(=O)c4ccc(F)cc4)nc3c2)cn1`, the IC50 [1] was > 50 µM and the IC50 [2] was > 50 µM.

`Cn1cc(-c2cnc3ccnc(NS(=O)(=O)c4cccs4)c3c2)cn1` showed an IC50 [1] of 17.4 µM and an IC50 [2] of 9.4 µM.

In the case of `Cn1cc(-c2cnc3ccnc(NCC4CC4)c3c2)cn1`, the IC50 [1] is reported as 7.4 µM and the IC50 [2] is reported as 8.9 µM.

`Cn1cc(-c2cnc3ccc(N)nc3c2)cn1` was tested, and the IC50 [1] was > 50 µM and the IC50 [2] was > 50 µM.

`Cn1cc(-c2cnc3ccnc(N)c3c2)cn1` showed an IC50 [1] of 40.8 µM and an IC50 [2] of 33.4 µM.

With `Cn1cc(-c2cnc3ccnc(NC(=O)c4ccc(F)cc4)c3c2)cn1` the IC50 [1] was > 50 µM and the IC50 [2] was > 50 µM.

For `Cn1cc(-c2cnc3ccc(NCC4CC4)nc3c2)cn1`, the IC50 [1] was > 50 µM and the IC50 [2] was > 50 µM.

For `CC(=O)Nc1ccc2ncc(-c3cnn(C)c3)cc2n1`, the IC50 [1] was > 50 µM and the IC50 [2] was > 50 µM.

`Cn1cc(-c2cnc3ccnc(NC(=O)c4cccnc4)c3c2)cn1` was tested, and the IC50 [1] was > 50 µM and the IC50 [2] was > 50 µM.

`Cc1ccc(S(=O)(=O)Nc2nccc3ncc(-c4cnn(C)c4)cc23)cc1` was tested, and the IC50 [1] was > 50 µM and the IC50 [2] was > 50 µM.

With `Cn1cc(-c2cnc3ccc(NC(=O)C4CC4)nc3c2)cn1` the IC50 [1] was > 50 µM and the IC50 [2] was > 50 µM.

`COc1ccc(CNc2nccc3ncc(-c4cnn(C)c4)cc23)cc1` was tested, and the IC50 [1] was 42.2 µM and the IC50 [2] was > 50 µM.

`Cn1cc(-c2cnc3ccnc(NS(=O)(=O)c4c(Cl)cccc4Cl)c3c2)cn1` was tested, and the IC50 [1] was > 50 µM and the IC50 [2] was > 50 µM.

`Cc1ccc(S(=O)(=O)Nc2ccc3ncc(-c4cnn(C)c4)cc3n2)cc1` was tested, and the IC50 [1] was > 50 µM and the IC50 [2] was 45.5 µM.

In the case of `Cn1cc(-c2cnc3ccnc(NC(=O)C4CC4)c3c2)cn1`, the IC50 [1] is reported as > 50 µM and the IC50 [2] is reported as > 50 µM.

`Cn1cc(-c2cnc3ccc(NCc4ccc(F)cc4)nc3c2)cn1` was tested, and the IC50 [1] was 46.6 µM and the IC50 [2] was > 50 µM.

`COc1ccc(C(=O)Nc2nccc3ncc(-c4cnn(C)c4)cc23)cc1` was tested, and the IC50 [1] was > 50 µM and the IC50 [2] was > 50 µM.

Molecule `COc1ccc(C(=O)Nc2ccc3ncc(-c4cnn(C)c4)cc3n2)cc1` has an IC50 [1] of 4.9 µM and an IC50 [2] of 6.4 µM.

For `COc1ccc(CNc2ccc3ncc(-c4cnn(C)c4)cc3n2)cc1`, the IC50 [1] was > 50 µM and the IC50 [2] was > 50 µM.

`Cn1cc(-c2cnc3ccc(NS(=O)(=O)c4cccs4)nc3c2)cn1` gave an IC50 [1] of 38.4 µM and an IC50 [2] of 39.5 µM.

`CCNc1nccc2ncc(-c3cnn(C)c3)cc12` was tested, and the IC50 [1] was > 50 µM and the IC50 [2] was 40.7 µM.

In the case of `CC(=O)Nc1nccc2ncc(-c3cnn(C)c3)cc12`, the IC50 [1] is reported as > 50 µM and the IC50 [2] is reported as > 50 µM.

With `CCNc1ccc2ncc(-c3cnn(C)c3)cc2n1` the IC50 [1] was > 50 µM and the IC50 [2] was > 50 µM.
